According to article PMC12133000 (PLOS One, 2025):

System: rat liver microsomes (RLMs)
Assay: Michaelis-Menten kinetics (Km) of rivaroxaban in RLMs
Assay type: in vitro ADME
Conditions: read-out: Km of rivaroxaban
Method: Three samples from each group were incubated, centrifuged, and separated as described earlier. The LC–MS/MS method was used to detect rivaroxaban metabolites. Km was calculated by applying the Michaelis–Menten equation using Prism v. 9.0 (GraphPad Software, MA, USA).

O=C(NC[C@H]1CN(c2ccc(N3CCOCC3=O)cc2)C(=O)O1)c1ccc(Cl)s1 [rivaroxaban, Rivaroxaban]
Km: 17.6 µM
